Several values for one entry are separate records, joined by “and”; a condition that tells them apart may be missing. Equal entries are not always repeated. Where two headings read alike, the source gives them in different places.
System: AsPC-1 cells
Assay: Cell proliferation assay, chemodrug + ATR inhibitor (Incucyte confluence, 72 h);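 further: underlying read-out for every value is AsPC-1 confluence after 72 h incubation at 37 °C and 5% CO2, divided by that well's starting confluence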
Details: for Curve bottom / Curve top: fitted curve, relative response; for Curve slope: fitted dose-response curve; for EC50: Homo sapiens
[1] = AsPC1, Experiment GEM alone in the Berzosertib series
[2] = AsPC1, Experiment GEM alone in the Ceralasertib series
[3] = AsPC1, Experiment GEM alone in the Elimusertib series
[4] = AsPC1, Experiment GEM alone in the Gartisertib series

Protocol: Cells were seeded at 5000 cells/well into 96-well flat bottom plates (Eppendorf) and allowed to attach overnight. […] Cells were incubated for 72 h at 37 °C and 5% CO2. Cell confluence readouts at 72 h were either normalized to their initial confluence using the Incucyte software (AsPC-1) or used without prior normalization (all others). […] Each experiment was performed in triplicates, the data was plotted as mean ± standard deviation (s.d.).

## Nc1ccn([C@@H]2O[C@H](CO)[C@@H](O)C2(F)F)c(=O)n1 [GEM, Gemcitabine]
[1]
  Curve bottom: 1.01 and 1.02
  Curve top: 0.52 and 0.50
[2]
  Curve bottom: 0.98 and 0.99
  Curve top: 0.56 and 0.44 and 0.46
[3]
  Curve bottom: 1.00 and 0.96 and 1.04
  Curve top: 0.42 and 0.43 and 0.44
  Curve slope: 1.10 and 1.63 and 1.11
[4]
  Curve bottom: 0.99 and 0.98 and 1.02
  Curve top: 0.53 and 0.46 and 0.43
  Curve slope: 0.94 and 1.48 and 1.05
Berzosertib experiment, replicate R3, titrated drug dose 1 nM
  Raw data (confluence at 72 h/confluence at 0 h): 3.42
Berzosertib experiment, replicate R3, titrated drug dose 3 nM
  Raw data (confluence at 72 h/confluence at 0 h): 3.51
Berzosertib experiment, replicate R3, titrated drug dose 10 nM
  Raw data (confluence at 72 h/confluence at 0 h): 3.46
Berzosertib experiment, replicate R3, titrated drug dose 30 nM
  Raw data (confluence at 72 h/confluence at 0 h): 3.01
Berzosertib experiment, replicate R3, titrated drug dose 100 nM
  Raw data (confluence at 72 h/confluence at 0 h): 2.04
Berzosertib experiment, replicate R1, titrated drug dose 1 nM
  Raw data (confluence at 72 h/confluence at 0 h): 3.13
Berzosertib experiment, replicate R1, titrated drug dose 3 nM
  Raw data (confluence at 72 h/confluence at 0 h): 3.29
Berzosertib experiment, replicate R1, titrated drug dose 10 nM
  Raw data (confluence at 72 h/confluence at 0 h): 2.93
Berzosertib experiment, replicate R1, titrated drug dose 30 nM
  Raw data (confluence at 72 h/confluence at 0 h): 2.52
Berzosertib experiment, replicate R1, titrated drug dose 100 nM
  Raw data (confluence at 72 h/confluence at 0 h): 2.11
Berzosertib experiment, replicate R1, titrated drug dose 300 nM
  Raw data (confluence at 72 h/confluence at 0 h): 1.92
Berzosertib experiment, replicate R2, titrated drug dose 1 nM
  Raw data (confluence at 72 h/confluence at 0 h): 3.67
Berzosertib experiment, replicate R2, titrated drug dose 3 nM
  Raw data (confluence at 72 h/confluence at 0 h): 3.44
Berzosertib experiment, replicate R2, titrated drug dose 10 nM
  Raw data (confluence at 72 h/confluence at 0 h): 3.56
Berzosertib experiment, replicate R2, titrated drug dose 30 nM
  Raw data (confluence at 72 h/confluence at 0 h): 3.03
Ceralasertib experiment, replicate R1, titrated drug dose 1 nM
  Raw data (confluence at 72 h/confluence at 0 h): 2.79
Ceralasertib experiment, replicate R1, titrated drug dose 3 nM
  Raw data (confluence at 72 h/confluence at 0 h): 3.19
Ceralasertib experiment, replicate R1, titrated drug dose 10 nM
  Raw data (confluence at 72 h/confluence at 0 h): 2.64
Ceralasertib experiment, replicate R1, titrated drug dose 30 nM
  Raw data (confluence at 72 h/confluence at 0 h): 2.39
Ceralasertib experiment, replicate R1, titrated drug dose 100 nM
  Raw data (confluence at 72 h/confluence at 0 h): 2.12
Ceralasertib experiment, replicate R2, titrated drug dose 1 nM
  Raw data (confluence at 72 h/confluence at 0 h): 3.88
Ceralasertib experiment, replicate R2, titrated drug dose 3 nM
  Raw data (confluence at 72 h/confluence at 0 h): 3.93
Ceralasertib experiment, replicate R2, titrated drug dose 10 nM
  Raw data (confluence at 72 h/confluence at 0 h): 3.66
Ceralasertib experiment, replicate R2, titrated drug dose 30 nM
  Raw data (confluence at 72 h/confluence at 0 h): 3.19
Ceralasertib experiment, replicate R2, titrated drug dose 100 nM
  Raw data (confluence at 72 h/confluence at 0 h): 2.36
Ceralasertib experiment, replicate R2, titrated drug dose 300 nM
  Raw data (confluence at 72 h/confluence at 0 h): 1.88
Ceralasertib experiment, replicate R3, titrated drug dose 1 nM
  Raw data (confluence at 72 h/confluence at 0 h): 3.42
Ceralasertib experiment, replicate R3, titrated drug dose 3 nM
  Raw data (confluence at 72 h/confluence at 0 h): 3.64
Experiment (ATRi) Elimusertib, replicate R1, drug dose (titrated) 1 nM
  Raw data (confluence at 72 h/confluence at 0 h): 3.45
Experiment (ATRi) Elimusertib, replicate R1, drug dose (titrated) 3 nM
  Raw data (confluence at 72 h/confluence at 0 h): 3.34
Experiment (ATRi) Elimusertib, replicate R1, drug dose (titrated) 10 nM
  Raw data (confluence at 72 h/confluence at 0 h): 3.17
Experiment (ATRi) Elimusertib, replicate R1, drug dose (titrated) 30 nM
  Raw data (confluence at 72 h/confluence at 0 h): 2.54
Experiment (ATRi) Elimusertib, replicate R1, drug dose (titrated) 100 nM
  Raw data (confluence at 72 h/confluence at 0 h): 1.97
Experiment (ATRi) Elimusertib, replicate R1, drug dose (titrated) 1000 nM
  Raw data (confluence at 72 h/confluence at 0 h): 1.56
Experiment (ATRi) Elimusertib, replicate R1, drug dose (titrated) 3000 nM
  Raw data (confluence at 72 h/confluence at 0 h): 1.44
Experiment (ATRi) Elimusertib, replicate R2, drug dose (titrated) 1 nM
  Raw data (confluence at 72 h/confluence at 0 h): 3.86
Experiment (ATRi) Elimusertib, replicate R2, drug dose (titrated) 3 nM
  Raw data (confluence at 72 h/confluence at 0 h): 3.95
Experiment (ATRi) Elimusertib, replicate R2, drug dose (titrated) 10 nM
  Raw data (confluence at 72 h/confluence at 0 h): 3.59
Experiment (ATRi) Elimusertib, replicate R2, drug dose (titrated) 30 nM
  Raw data (confluence at 72 h/confluence at 0 h): 3.07
Experiment (ATRi) Elimusertib, replicate R2, drug dose (titrated) 100 nM
  Raw data (confluence at 72 h/confluence at 0 h): 2.33
Experiment (ATRi) Elimusertib, replicate R3, drug dose (titrated) 1 nM
  Raw data (confluence at 72 h/confluence at 0 h): 3.76
Experiment (ATRi) Elimusertib, replicate R3, drug dose (titrated) 3 nM
  Raw data (confluence at 72 h/confluence at 0 h): 3.85
Experiment (ATRi) Elimusertib, replicate R3, drug dose (titrated) 10 nM
  Raw data (confluence at 72 h/confluence at 0 h): 3.75
Experiment (ATRi) Elimusertib, replicate R3, drug dose (titrated) 30 nM
  Raw data (confluence at 72 h/confluence at 0 h): 3.15
Experiment (ATRi) Elimusertib, replicate R3, drug dose (titrated) 100 nM
  Raw data (confluence at 72 h/confluence at 0 h): 2.28
Experiment (ATRi) Gartisertib, replicate R1, drug dose (titrated) 1 nM
  Raw data (confluence at 72 h/confluence at 0 h): 3.28
Experiment (ATRi) Gartisertib, replicate R1, drug dose (titrated) 3 nM
  Raw data (confluence at 72 h/confluence at 0 h): 3.04
Experiment (ATRi) Gartisertib, replicate R1, drug dose (titrated) 10 nM
  Raw data (confluence at 72 h/confluence at 0 h): 2.71
Experiment (ATRi) Gartisertib, replicate R1, drug dose (titrated) 30 nM
  Raw data (confluence at 72 h/confluence at 0 h): 2.57
Experiment (ATRi) Gartisertib, replicate R1, drug dose (titrated) 100 nM
  Raw data (confluence at 72 h/confluence at 0 h): 2.04
Experiment (ATRi) Gartisertib, replicate R1, drug dose (titrated) 300 nM
  Raw data (confluence at 72 h/confluence at 0 h): 1.92
Gartisertib experiment, replicate R2, titrated drug dose 1 nM
  Raw data (confluence at 72 h/confluence at 0 h): 4.01
Gartisertib experiment, replicate R2, titrated drug dose 3 nM
  Raw data (confluence at 72 h/confluence at 0 h): 4.05
Gartisertib experiment, replicate R2, titrated drug dose 10 nM
  Raw data (confluence at 72 h/confluence at 0 h): 3.93
Gartisertib experiment, replicate R2, titrated drug dose 30 nM
  Raw data (confluence at 72 h/confluence at 0 h): 3.32
Gartisertib experiment, replicate R2, titrated drug dose 100 nM
  Raw data (confluence at 72 h/confluence at 0 h): 2.49
Gartisertib experiment, replicate R2, titrated drug dose 300 nM
  Raw data (confluence at 72 h/confluence at 0 h): 2.07
Gartisertib experiment, replicate R2, titrated drug dose 1000 nM
  Raw data (confluence at 72 h/confluence at 0 h): 1.91
Gartisertib experiment, replicate R2, titrated drug dose 3000 nM
  Raw data (confluence at 72 h/confluence at 0 h): 1.89
Gartisertib experiment, replicate R3, titrated drug dose 1 nM
  Raw data (confluence at 72 h/confluence at 0 h): 4.16
Gartisertib experiment, replicate R3, titrated drug dose 3 nM
  Raw data (confluence at 72 h/confluence at 0 h): 3.98
Gartisertib experiment, replicate R3, titrated drug dose 10 nM
  Raw data (confluence at 72 h/confluence at 0 h): 3.74
Gartisertib experiment, replicate R3, titrated drug dose 30 nM
  Raw data (confluence at 72 h/confluence at 0 h): 3.24
Gartisertib experiment, replicate R3, titrated drug dose 100 nM
  Raw data (confluence at 72 h/confluence at 0 h): 2.56
Gartisertib experiment, replicate R3, titrated drug dose 300 nM
  Raw data (confluence at 72 h/confluence at 0 h): 2.02
ASPC1, 72 h, AsPC1, Experiment GEM (Gemcitabine alone) in the Berzosertib series, single replicates R1-R3
  EC50: 34.6 nM
ASPC1, 72 h, AsPC1, Experiment GEM (Gemcitabine alone) in the Ceralasertib series, single replicates R1-R3
  EC50: 42.6 nM
ASPC1, 72 h, AsPC1, Experiment GEM (Gemcitabine alone) in the Elimusertib series, single replicates R1-R3
  EC50: 42.4 nM
ASPC1, 72 h, AsPC1, Experiment GEM (Gemcitabine alone) in the Gartisertib series, single replicates R1-R3
  EC50: 34.1 nM
ASPC1, 72 h, read-out: EC50 (cell growth), GEM alone, mean of four experiments
  EC50: 45 nM
ASPC1, 72 h, read-out: EC50 mean [nM], AsPC1, Experiment GEM alone in the Berzosertib series, mean of replicates
  EC50: 40.5 nM
ASPC1, 72 h, read-out: EC50 mean [nM], AsPC1, Experiment GEM alone in the Ceralasertib series, mean of replicates
  EC50: 45.5 nM
ASPC1, 72 h, read-out: EC50 mean [nM], AsPC1, Experiment GEM alone in the Elimusertib series, mean of replicates
  EC50: 44.4 nM
ASPC1, 72 h, read-out: EC50 mean [nM], AsPC1, Experiment GEM alone in the Gartisertib series, mean of replicates
  EC50: 46 nM
ASPC1, 72 h, read-out: pEC50, AsPC1 (converted), Experiment GEM (Gemcitabine alone) in the Berzosertib series, single replicates R1-R3
  EC50: 34.7 nM
ASPC1, 72 h, read-out: pEC50, AsPC1 (converted), Experiment GEM (Gemcitabine alone) in the Ceralasertib series, single replicates R1-R3
  EC50: 42.7 nM
ASPC1, 72 h, read-out: pEC50, AsPC1 (converted), Experiment GEM (Gemcitabine alone) in the Elimusertib series, single replicates R1-R3
  EC50: 42.7 nM
ASPC1, 72 h, read-out: pEC50, AsPC1 (converted), Experiment GEM (Gemcitabine alone) in the Gartisertib series, single replicates R1-R3
  EC50: 33.9 nM
ASPC1, read-out: EC50 mean [nM], AsPC1, Experiment GEM alone in the Berzosertib series, mean of replicates
  EC50: 40.5 nM
ASPC1, read-out: EC50 mean [nM], AsPC1, Experiment GEM alone in the Ceralasertib series, mean of replicates
  EC50: 45.5 nM
ASPC1, read-out: EC50 mean [nM], AsPC1, Experiment GEM alone in the Elimusertib series, mean of replicates
  EC50: 44.4 nM
ASPC1, read-out: EC50 mean [nM], AsPC1, Experiment GEM alone in the Gartisertib series, mean of replicates
  EC50: 46 nM
ASPC1, read-out: EC50 mean, GEM alone, Berzosertib experiment
  EC50: 40.5 nM
ASPC1, read-out: EC50 mean, GEM alone, Ceralasertib experiment
  EC50: 45.5 nM
ASPC1, read-out: EC50 mean, GEM alone, Elimusertib experiment
  EC50: 44.4 nM
ASPC1, read-out: EC50 mean, GEM alone, Gartisertib experiment
  EC50: 46 nM
Titrated drug dose 10 nM, replicate R3, experiment (ATRi) Ceralasertib, AsPC-1, 72 h
  Raw data (confluence at 72 h/confluence at 0 h): 3.37
Titrated drug dose 30 nM, replicate R3, experiment (ATRi) Ceralasertib, AsPC-1, 72 h
  Raw data (confluence at 72 h/confluence at 0 h): 2.93
Titrated drug dose 1000 nM, replicate R3, experiment (ATRi) Ceralasertib, AsPC-1, 72 h
  Raw data (confluence at 72 h/confluence at 0 h): 1.56
